Data from PubChem BioAssay AID2060503 (Molecular Pharmacology Branch, DTP, NCI, 2025).

Tested on: 817829-284-R-J1-PDC complex spheroids, viability
Experiment: Anticancer human tumor 817829-284-R-J1-PDC patient-derived colon adenocarcinoma cell line growth inhibition [GQUAD]
Conditions: for IC50: curve of first compound; for viability, T/C: stronger effect = lower value
Excerpt: DNA G-quadruplex Stabilizer Agents in Combinations in Complex Spheroids
A high-throughput screen of multi-cell type tumor spheroids was designed to identify active combinations of DNA G-quadruplex stabilizer agents and targeted small molecules. Complex spheroids include a stromal component modeled by human endothelial cells (HUVEC) and fibroblasts modeled by human mesenchymal stem cells (MSCs). The concentration ranges selected for each drug and investigational agent were based upon clinically achievable concentrations if the clinical Cmax of the agent was known.
Compounds. The drugs and investigational agents: pidnarulex (CX-5461; NSC782164), APTO-253 (NSC789042), BRACO-19 (NSC847499), peposertib (NSC802822), ceralasertib (NSC780249), elimusertib (NSC800525), camonsertib (NSC841442), AZD-1390 (NSC803789), olaparib (NSC753686), talazoparib (NSC767125), ART-558 (NSC835418), sotorasib (NSC818433), MRTX-1133 (NSC836407), SN-38 (NSC673596), topotecan (NSC609699), etoposide (NSC141540), doxorubicin (NSC123127), gemcitabine (NSC613327), 5-fluorouracil (NSC19893), paclitaxel (NSC125973), vemurafenib (NSC761431), panobinostat (NSC761190), R-306465 (JNJ-16241199; NSC773264), adavosertib (NSC754352), TP-3654 (NSC805149), carboplatin (NSC241240), KSQ-4279 (NSC840948), and staurosporine (NSC755774) were obtained from the National Cancer Institute (NCI) Developmental Therapeutics Program Chemical Repository (34). The FDA-approved anticancer drug set is available from the NCI Developmental Therapeutics Program. […] The stock solutions were prepared in dimethyl sulfoxide (DMSO, Sigma-Aldrich, St. Louis, MO, cat. D2650) at 800-fold the tested concentration and stored at -70 degrees C prior to their use. All drugs and investigational agents were tested over a range starting from a high concentration at or near the clinical Cmax and decreasing in half-log increments. If the clinical Cmax for an agent had not been determined, the highest concentration tested was 10 microM.
2.3 Cell Culture. All cells were maintained in an incubator at 37 degrees C and 5% CO2 with 95% humidity. The PDC lines were cultured according to standard operating procedures established by the NCI PDMR. All PDCs were thawed and cultured in Matrigel-coated flasks prepared with a working solution of 1X Ham's F-12 nutrient mix, without supplementation (Invitrogen, cat. 11765054), 100 U/mL penicillin-streptomycin (Invitrogen, cat. 15140122), and 2.5% Matrigel (Corning Inc., cat. 354248) for the first three passages. The 857933-349-R-J2-PDC line was cultured in 6C/Colon 1B media, which includes advanced DMEM/F-12 (Thermo Fisher Scientific, cat. 12634028), 10 mM HEPES (Thermo Fisher Scientific, cat. 15630080), 1X GlutaMAX supplement (Thermo Fisher Scientific, cat. 35050061), 0.1 mg/mL primocin (InvivoGen, cat. ant-pm-2), 10% defined fetal bovine serum, heat inactivated (HyClone Laboratories Inc., cat. SH30070.03HI), 50% L-WRN conditioned media (ATCC, cat. CRL-3276), 1.25 mM N-Acetyl-L-cysteine (Sigma-Aldrich, cat. A9165), 10 mM nicotinamide (Sigma-Aldrich, cat. N0636), 1X B-27 supplement (Thermo Fisher Scientific, cat. 17504044), 1X N-2 supplement (Thermo Fisher Scientific, cat. 17502048), 10 microM Y-27632 dihydrochloride (Tocris Bioscience, cat. 1254), and 50 ng/mL human EGF recombinant protein (Thermo Fisher Scientific, cat. PHG0311). The 485176-168-R4-J1-PDC line was cultured in Panc media, which includes all 6C/Colon 1B media components plus 100 ng/mL human FGF-10 (Thermo Fisher Scientific, cat. 100-26), 500 nM SB-431542 (Selleckchem, cat. S1067), and gastrin (Tocris, cat. 3006).
[…]

[1] = second compound 0.0316 µM, first compound 0.0316 µM
[2] = second compound 0.0316 µM, first compound 0.316 µM
[3] = second compound 0.1 µM, first compound 0.0316 µM
[4] = second compound 0.1 µM, first compound 0.316 µM
[5] = second compound 0.316 µM, first compound 0.0316 µM
[6] = second compound 0.316 µM, first compound 0.316 µM
[7] = second compound 1 µM, first compound 0.0316 µM
[8] = second compound 1 µM, first compound 0.316 µM
[9] = second compound 3.16 µM, first compound 0.0316 µM
[10] = second compound 3.16 µM, first compound 0.316 µM
[11] = second compound 10 µM, first compound 0.0316 µM
[12] = second compound 10 µM, first compound 0.316 µM
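Note: spheroids exposed to agents for 7 days before readout.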
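Throughout, for viability, T/C: percent viability relative to DMSO vehicle control taken as 100%.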

SMILES: CCc1c2c(nc3ccc(O)cc13)-c1cc3c(c(=O)n1C2)COC(=O)[C@]3(O)CC + CN(C)c1ccc(Nc2c3ccc(NC(=O)CCN4CCCC4)cc3nc3cc(NC(=O)CCN4CCCC4)ccc23)cc1
- IC50 (second compound 0.0316 µM): 1.19 nM
- IC50 (second compound 0.1 µM): 1.44 nM
- IC50 (second compound 0.316 µM): 2.21 nM
- IC50 (second compound 1 µM): 2.22 nM
- IC50 (second compound 3.16 µM): 2.78 nM
- IC50 (second compound 10 µM): 2.02 nM
- viability, T/C (second compound 0.0316 µM, first compound 0.000999 µM): 50.9%
- viability, T/C (second compound 0.0316 µM, first compound 0.00316 µM): 44.4%
- viability, T/C (second compound 0.0316 µM, first compound 0.00999 µM): 32.1%
- viability, T/C [1]: 21.4%
- viability, T/C (second compound 0.0316 µM, first compound 0.0999 µM): 10.8%
- viability, T/C [2]: 6.33%
- viability, T/C (second compound 0.1 µM, first compound 0.000999 µM): 54.2%
- viability, T/C (second compound 0.1 µM, first compound 0.00316 µM): 40.1%
- viability, T/C (second compound 0.1 µM, first compound 0.00999 µM): 34.6%
- viability, T/C [3]: 19.8%
- viability, T/C (second compound 0.1 µM, first compound 0.0999 µM): 10.2%
- viability, T/C [4]: 4.96%
- viability, T/C (second compound 0.316 µM, first compound 0.000999 µM): 53.4%
- viability, T/C (second compound 0.316 µM, first compound 0.00316 µM): 48.3%
- viability, T/C (second compound 0.316 µM, first compound 0.00999 µM): 36.7%
- viability, T/C [5]: 19.2%
- viability, T/C (second compound 0.316 µM, first compound 0.0999 µM): 10.4%
- viability, T/C [6]: 5.53%
- viability, T/C (second compound 1 µM, first compound 0.000999 µM): 61.1%
- viability, T/C (second compound 1 µM, first compound 0.00316 µM): 44.1%
- viability, T/C (second compound 1 µM, first compound 0.00999 µM): 32.5%
- viability, T/C [7]: 21.3%
- viability, T/C (second compound 1 µM, first compound 0.0999 µM): 11.2%
- viability, T/C [8]: 5.92%
- viability, T/C (second compound 3.16 µM, first compound 0.000999 µM): 66.4%
- viability, T/C (second compound 3.16 µM, first compound 0.00316 µM): 45.1%
- viability, T/C (second compound 3.16 µM, first compound 0.00999 µM): 35%
- viability, T/C [9]: 23.7%
- viability, T/C (second compound 3.16 µM, first compound 0.0999 µM): 12.2%
- viability, T/C [10]: 6.09%
- viability, T/C (second compound 10 µM, first compound 0.000999 µM): 60.8%
- viability, T/C (second compound 10 µM, first compound 0.00316 µM): 42.9%
- viability, T/C (second compound 10 µM, first compound 0.00999 µM): 28.7%
- viability, T/C [11]: 20.6%
- viability, T/C (second compound 10 µM, first compound 0.0999 µM): 11.4%
- viability, T/C [12]: 6.76%

SMILES: O=C(c1cc(Cc2n[nH]c(=O)c3ccccc23)ccc1F)N1CCN(C(=O)C2CC2)CC1 + CN(C)c1ccc(Nc2c3ccc(NC(=O)CCN4CCCC4)cc3nc3cc(NC(=O)CCN4CCCC4)ccc23)cc1
- IC50 (second compound 0.0316 µM): > 10000 nM
- IC50 (second compound 0.1 µM): > 10000 nM
- IC50 (second compound 0.316 µM): > 10000 nM
- IC50 (second compound 1 µM): > 10000 nM
- IC50 (second compound 3.16 µM): > 10000 nM
- IC50 (second compound 10 µM): > 10000 nM
- viability, T/C [1]: 108%
- viability, T/C (second compound 0.0316 µM, first compound 0.1 µM): 97.8%
- viability, T/C [2]: 102%
- viability, T/C (second compound 0.0316 µM, first compound 1 µM): 90.7%
- viability, T/C (second compound 0.0316 µM, first compound 3.16 µM): 78.8%
- viability, T/C (second compound 0.0316 µM, first compound 10 µM): 58.3%
- viability, T/C [3]: 101%
- viability, T/C (second compound 0.1 µM, first compound 0.1 µM): 107%
- viability, T/C [4]: 108%
- viability, T/C (second compound 0.1 µM, first compound 1 µM): 98.6%
- viability, T/C (second compound 0.1 µM, first compound 3.16 µM): 100%
- viability, T/C (second compound 0.1 µM, first compound 10 µM): 60.2%
- viability, T/C [5]: 102%
- viability, T/C (second compound 0.316 µM, first compound 0.1 µM): 97.6%
- viability, T/C [6]: 107%
- viability, T/C (second compound 0.316 µM, first compound 1 µM): 93%
- viability, T/C (second compound 0.316 µM, first compound 3.16 µM): 95.2%
- viability, T/C (second compound 0.316 µM, first compound 10 µM): 66.8%
- viability, T/C [7]: 107%
- viability, T/C (second compound 1 µM, first compound 0.1 µM): 96.7%
- viability, T/C [8]: 99%
- viability, T/C (second compound 1 µM, first compound 1 µM): 93.7%
- viability, T/C (second compound 1 µM, first compound 3.16 µM): 93.7%
- viability, T/C (second compound 1 µM, first compound 10 µM): 62.5%
- viability, T/C [9]: 100%
- viability, T/C (second compound 3.16 µM, first compound 0.1 µM): 103%
- viability, T/C [10]: 94.1%
- viability, T/C (second compound 3.16 µM, first compound 1 µM): 99.5%
- viability, T/C (second compound 3.16 µM, first compound 3.16 µM): 94.9%
- viability, T/C (second compound 3.16 µM, first compound 10 µM): 58.3%
- viability, T/C [11]: 97.4%
- viability, T/C (second compound 10 µM, first compound 0.1 µM): 102%
- viability, T/C [12]: 94.5%
- viability, T/C (second compound 10 µM, first compound 1 µM): 88.4%
- viability, T/C (second compound 10 µM, first compound 3.16 µM): 70.7%
- viability, T/C (second compound 10 µM, first compound 10 µM): 52.5%
